Measured values from ChEMBL document CHEMBL1201862, “PubChem BioAssay data set” (2004).
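Five compound concentrations were applied to cells in 96-well plates for 48 hours; endpoints were derived by simple linear interpolation of the resulting dose-response curve. GI50 is the concentration that inhibits growth by half.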 The source made the active and inactive calls. Rule as the data show it: active = GI50 up to about 1.1 µM and inactive = higher. *1 amine or outer side, *2 acyl side, *3 side chain or, on linkers, in order; H or OH if unused. Where a SMILES comes first, the peptide text is derived from it. Bridges are numbered along the chain shown (N, C = ends). [ ]: non-standard residue; d: D form. ξ: configuration not given here. X10 = CCC(C)C(N[*:1])C(O)CC(=O)O[C@H](C(=O)C(C)C(=O)[*:2])C(C)C; NMeY = CN[C@@H](Cc1ccc(O)cc1)C(=O)O; ξNMeL = CNC(CC(C)C)C(=O)O; ξT = CC(O)C(N)C(=O)O

Legend:
Test in all cases: NCI anticancer screen, dose series, 48 h
RPMI-8226 = system: RPMI-8226
KM12 = system: KM12
SK-MEL-2 = system: SK-MEL-2
OVCAR-3 = system: OVCAR-3
SW-620 = system: SW-620
LOX IMVI = system: LOX IMVI
HCT-116 = system: HCT-116
A549 = system: A549
OVCAR-4 = system: OVCAR-4
UO-31 = system: UO-31
SF-539 = system: SF-539
NCI-H226 = system: NCI-H226
SNB-75 = system: SNB-75
COLO 205 = system: COLO 205
K562 = system: K562
DMS-114 = system: DMS-114
OVCAR-5 = system: OVCAR-5
A498 = system: A498
T47D = system: T47D
PC-3 = system: PC-3

Row | SMILES | GI50 (RPMI-8226) | GI50 (KM12) | GI50 (SK-MEL-2) | GI50 (OVCAR-3) | GI50 (SW-620) | GI50 (LOX IMVI) | GI50 (HCT-116) | GI50 (A549) | GI50 (OVCAR-4) | GI50 (UO-31) | GI50 (SF-539) | GI50 (NCI-H226) | GI50 (SNB-75) | GI50 (COLO 205) | GI50 (K562) | GI50 (DMS-114) | GI50 (OVCAR-5) | GI50 (A498) | GI50 (T47D) | GI50 (PC-3)
1 | COc1ccc(CCN2CCC(C#N)(c3ccc(OC)c(OC)c3)CC2)cc1OC | > 100 µM (inactive) | > 100 µM (inactive) | > 100 µM (inactive) | > 100 µM (inactive) | > 100 µM (inactive) | > 100 µM (inactive) | > 100 µM (inactive) | > 100 µM (inactive) | > 100 µM (inactive) | > 100 µM (inactive) | > 100 µM (inactive) | > 100 µM (inactive) | 30.5 µM (inactive) | > 100 µM (inactive) | > 100 µM (inactive) | 60.4 µM (inactive) | > 100 µM (inactive) |  |  | 
2 | CCOC(=O)c1c2c(n(-c3ccc(C)cc3)c1C)-c1ccccc1C(=O)C2(C(=O)OCC)C(=O)OCC | 14 µM (inactive) | 38.5 µM (inactive) | 36.3 µM (inactive) | 25.3 µM (inactive) | 37.1 µM (inactive) | 33.8 µM (inactive) | 31.4 µM (inactive) | 30.7 µM (inactive) | 30.8 µM (inactive) | 23.1 µM (inactive) | 35.8 µM (inactive) | 55 µM (inactive) | 28.6 µM (inactive) | 45.3 µM (inactive) | 14.5 µM (inactive) |  | 74 µM (inactive) | 46.6 µM (inactive) | 20.7 µM (inactive) | 33.7 µM (inactive)
3 | CCOC(=O)c1nc[nH]c1/N=N/N(C)N | 46.6 µM (inactive) | 1.87 µM (inactive) | > 100 µM (inactive) | > 100 µM (inactive) | > 100 µM (inactive) | 92.5 µM (inactive) | > 100 µM (inactive) | > 100 µM (inactive) | > 100 µM (inactive) | > 100 µM (inactive) | > 100 µM (inactive) | > 100 µM (inactive) | > 100 µM (inactive) | 36.6 µM (inactive) | > 10 µM (inactive) |  | > 100 µM (inactive) | 40.6 µM (inactive) | 20.8 µM (inactive) | > 100 µM (inactive)
4 | O=C(CCC(=O)c1ccc(Cl)cc1)NO | > 100 µM (inactive) | > 100 µM (inactive) | > 100 µM (inactive) | > 100 µM (inactive) | > 100 µM (inactive) | > 100 µM (inactive) | > 100 µM (inactive) | > 100 µM (inactive) | > 100 µM (inactive) | > 100 µM (inactive) | > 100 µM (inactive) | > 100 µM (inactive) | > 100 µM (inactive) | > 100 µM (inactive) | > 100 µM (inactive) |  | > 100 µM (inactive) | > 100 µM (inactive) | > 100 µM (inactive) | > 100 µM (inactive)
5 | O=C1/C(=C/c2ccc(O)cc2)CC/C1=C\c1ccc(O)cc1 | 49.3 µM (inactive) | > 100 µM (inactive) | > 100 µM (inactive) | > 100 µM (inactive) | > 100 µM (inactive) | > 100 µM (inactive) | > 100 µM (inactive) | > 95.1 µM (inactive) | > 64.3 µM (inactive) | 51.2 µM (inactive) | 22.6 µM (inactive) | > 100 µM (inactive) | > 100 µM (inactive) | > 100 µM (inactive) | > 100 µM (inactive) |  | > 100 µM (inactive) | > 33 µM (inactive) | > 95.1 µM (inactive) | 59.6 µM (inactive)
6 | COc1cc(Oc2nc3c(N)cc(C(F)(F)F)cc3nc2-c2ccccc2)cc(OC)c1OC | 2.45 µM (inactive) | 2.17 µM (inactive) | 3.24 µM (inactive) | 1.3 µM (inactive) | 3.07 µM (inactive) | 3.48 µM (inactive) | 2.34 µM (inactive) | 5 µM (inactive) | 19.2 µM (inactive) | 11.2 µM (inactive) | 3.4 µM (inactive) | 12.8 µM (inactive) | 1.23 µM (inactive) | 3.62 µM (inactive) | 1.23 µM (inactive) |  | 31.3 µM (inactive) | 7.89 µM (inactive) | 5.81 µM (inactive) | 1.92 µM (inactive)
7 | O=C(NC/C=C/Br)NC1CCNc2ccccc21 (stereo not drawn) | 27.2 µM (inactive) | 38.2 µM (inactive) | 30.1 µM (inactive) | 47.2 µM (inactive) | 52.8 µM (inactive) | 25.6 µM (inactive) | 30.1 µM (inactive) | 32.2 µM (inactive) | 72.1 µM (inactive) | 27.8 µM (inactive) | 20.5 µM (inactive) | 38.8 µM (inactive) | 45 µM (inactive) | 18.7 µM (inactive) | 30.1 µM (inactive) |  | 55.3 µM (inactive) | 31.9 µM (inactive) | 36.5 µM (inactive) | 37.3 µM (inactive)
8 | Cc1cc(C)c(N)c(C)c1N | > 100 µM (inactive) | > 100 µM (inactive) | > 100 µM (inactive) | > 100 µM (inactive) | > 100 µM (inactive) | > 100 µM (inactive) | > 100 µM (inactive) | > 100 µM (inactive) |  | > 100 µM (inactive) | > 100 µM (inactive) |  |  | > 100 µM (inactive) | > 100 µM (inactive) | > 100 µM (inactive) | > 100 µM (inactive) | > 100 µM (inactive) |  | 
9 | CCC(C)C1NC(=O)C(NC(=O)C(CC(C)C)N(C)C(=O)[C@@H]2CCCN2)C(C)OC(=O)[C@H](Cc2ccc(OC)cc2)N(C)C(=O)[C@@H]2CCCN2C(=O)[C@H](CC(C)C)NC(=O)C(C)C(=O)[C@H](C(C)C)OC(=O)CC1O (stereo partly drawn) (H-P[ξNMeL][ξT][X10]LP[NMeY](Me); ester 3-C) | 0.00116 µM (active) | < 0.01 µM (active) | < 0.01 µM (active) | 0.00136 µM (active) | 0.000555 µM (active) | < 0.0001 µM (active) | < 0.0001 µM (active) | 0.000533 µM (active) | 0.000139 µM (active) | 0.0214 µM (active) | 0.000322 µM (active) | < 0.01 µM (active) | 0.000682 µM (active) | 0.000153 µM (active) | 0.000325 µM (active) |  | < 0.01 µM (active) | 0.00411 µM (active) | 0.000185 µM (active) | 0.00106 µM (active)
10 | COc1cccc(C(=O)N[C@@H]2[C@H](O)[C@@H](CO)O[C@H]2n2cnc3c(N)ncnc32)c1 | > 100 µM (inactive) | > 100 µM (inactive) | > 100 µM (inactive) | > 100 µM (inactive) | > 100 µM (inactive) | > 100 µM (inactive) | > 100 µM (inactive) | > 100 µM (inactive) | > 100 µM (inactive) | > 100 µM (inactive) | > 100 µM (inactive) | > 100 µM (inactive) | > 100 µM (inactive) | > 100 µM (inactive) | > 100 µM (inactive) |  | > 100 µM (inactive) | > 100 µM (inactive) | > 100 µM (inactive) | > 100 µM (inactive)
11 | COC1=C(Br)[C@H](O)[C@@]2(C=C1Br)CC(C(=O)NCCCCCNC(=N)N)=NO2 [APLYSINAMISINE II] | > 10 µM (inactive) | > 10 µM (inactive) | > 10 µM (inactive) | > 10 µM (inactive) | > 10 µM (inactive) | > 10 µM (inactive) | > 10 µM (inactive) | > 10 µM (inactive) | > 10 µM (inactive) | > 10 µM (inactive) | > 10 µM (inactive) | > 10 µM (inactive) | 6.79 µM (inactive) | > 10 µM (inactive) | > 10 µM (inactive) |  | > 10 µM (inactive) | > 10 µM (inactive) | > 10 µM (inactive) | > 10 µM (inactive)
